We go through 2 compounds from the NIST ThermoML archive (doi:10.1016/j.fluid.2008.08.001).

Numbers after ± are expanded uncertainties.

The conditions of data set [1]: for vapor or sublimation pressure: Liquid.
A short description of data set [2]: refractive index (Na D-line) (dimensionless). The conditions noted are these: 298.1 K; 101.33 kPa; Liquid; Standard Abbe refractometry.

Take `CCCCOC(=O)CCCCCCCCC(=O)OCCCC` [dibutyl decanedioate]: the “vapor or sublimation pressure” value in data set [1] (468.96 K) is given as 0.666 ± 0.044 kPa; in data set [1] (473.96 K), 0.818 ± 0.05 kPa; in data set [1] (478.65 K), 1.036 ± 0.059 kPa; in data set [1] (485.91 K), 1.457 ± 0.078 kPa; in data set [1] (488.5 K) it was 1.515 ± 0.081 kPa; in data set [1] (490.22 K) it was 1.762 ± 0.093 kPa. For the same compound, the “vapor or sublimation pressure” value in data set [1] (496.8 K) worked out at 2.286 ± 0.12 kPa; in data set [1] (500.18 K) it was 2.647 ± 0.14 kPa; in data set [1] (505.08 K), 3.149 ± 0.16 kPa; in data set [1] (510.7 K) it was 4.078 ± 0.21 kPa; in data set [1] (519.03 K) it was 5.29 ± 0.27 kPa; in data set [1] (525.3 K) it was 7.044 ± 0.35 kPa. In addition, in data set [1] (532.77 K), the “vapor or sublimation pressure” value was 9.161 ± 0.46 kPa. For the same compound, the refractive index in data set [2] amounted to 1.442 ± 0.0007.
As for `O=C1C=CC(=O)O1` [maleic anhydride], in data set [1] (Crystal, visual observation), the Normal melting temperature turned out to be 52.5 ± 0.5 °C.
